Test results: publication PMC12392461, “Beyond Estrogenicity: A Comparative Assessment of Bisphenol A and Its Alternatives in In Vitro Assays Questions Safety of Replacements” (Environmental Science & Technology, 2025)
Read-outs that look alike come from different tables or passages of the source.

How the values were obtained:
[1] = system: Mitochondrial Membrane Potential; experiment: cells; conditions: for Specificity ratio (SRbaseline) SRMMP: against baseline cytotoxicity; for Specificity ratio (SRcytotoxicity) SRMMP: against experimental cytotoxicity; for Relative effect potency REPMMP: relative to BPA; for EC10, linear: MMP bioassay, dosing range all, linear model; for log(1/EC10) MMP: input of the ToxPi score, values up to 1.00; for SR (MMP inhibition): specificity ratio
Source text: All bioassay media components and the ERα-UAS-bla GripTite and PPARγ-UAS-bla cells were obtained from Thermo Fisher Scientific (Waltham, MA, USA). AREc32 reporter gene cells based on MCF7 were provided by C. Roland Wolf (Cancer Research UK); AhR CALUX cells (H4L7.5c2 derived from H4IIe) were provided by Michael Denison (UC Davis, USA); and SH-SY5Y cells were purchased from Sigma-Aldrich.
(§1) Cell culture conditions and bioassay protocols including response detection are provided in Text S2.1–2.4 and Table S3. − Cell viability was determined from cell confluency using an IncuCyte S3 Live-Cell Analysis System (Sartorius AG, Essen, Germany) before and after exposure, except for SH-SY5Y cells (live–dead staining with Nuclear Green LcS1 and propidium iodide, Abcam, UK). For metabolic activation experiments, cell viability was assessed using the ToxBLAzer DualScreen Kit (Thermo Fisher Scientific) to capture the remaining toxicity in ERα-UAS-bla GripTite after treatment with the aCYP catalyst (details in Text S2.4).
For ARE, the concentration that triggered an induction ratio of 1.5 (ECIR1.5) was used as the benchmark value, as detailed in Text S2.5. IC10 values also served as a threshold for data analysis in all assays; only concentrations below IC10 were considered when deriving EC10 or ECIR1.5. […]
S2: Cell culture and bioassays
S2.1: Cell Culturing Conditions
All suppliers and sources are given in detail in SI-Excel S3. The bioassay media for the different assays were prepared as follows: Assay medium for ER alpha-UAS-bla GripTite (ERα) and […]
2% charcoal-stripped FBS, and 100 U/mL penicillin-streptomycin. MitoOxTox and AhR assay medium was comprised of 90% DMEM with GlutaMAX, supplemented with 10% FBS, and 100 U/mL penicillin-streptomycin. […]
S2.2: Cell Seeding and Incubation. For all bioassays, cell suspensions in the respective assay medium were dispensed into each well of 384-well plates using a MultiFlo Dispenser (Biotek, (now Agilent), Winooski, VT, U.S.). After seeding, the plates were incubated at 37° C and 5% CO₂ for […]. The final cell densities and plate types were as follows: Black poly-D-lysine […]
6500 cells/well, ERα: 5000 cells/well. White 384-well plates with a clear bottom (Product No.
(§2) NYC, U.S.) for AhR: 3250 cells/well. Black Collagen I coated plates were used (Product No.
(§3) S2.3: Chemical Dosing and Assay Analysis Procedures. The dosing procedure and high-throughput assay workflow have been described in detail before. 9 The dosing concentrations […]
Stock solutions were then either

SH-SY5Y cells = conditions: for Toxic ratio (TR) TRNOI: against baseline cytotoxicity; for IC10, SH-S5Y5, NOI: cytotoxicity, NOI assay cells
Procedure: as §1, with “S2.4). […]” for “S2.4).”
We measured the cytotoxicity of BPA and its alternatives in HEK293H (PPARγ), HEK293T (ERα), H4IIe (AhR CALUX), MCF7 (ARE/MMP), and differentiated SH-SY5Y cells (Table S6). […]
medium, supplemented with 2% B-27 Supplement and 2 mM GlutaMAX Supplement. SH - SY5Y cells were differentiated with 10 µM all-trans retinoic acid prior to the assay.
S2.2: Cell Seeding and Incubation. For all bioassays, cell suspensions in the respective assay medium were dispensed into each well of 384-well plates using a MultiFlo Dispenser (Biotek, (now Agilent), Winooski, VT, U.S.). After seeding, the plates were incubated at 37° C and 5% […]
as §2, §3
Stock solutions were then either added directly to the respective cell culture medium or evaporated under nitrogen, followed by replenishment with fresh medium. The final solvent content in each well was kept below 1% for methanol, 0% for acetonitrile.
Dosing plates were prepared as 11 -step serial dilutions using a Hamilton Microlab Star robotic system (Hamilton, Bonaduz, Switzerland), and chemicals were dosed in duplicates by transferring 10 μL twice from the dosing plates to the cell plates . After quantifying cell confluency as described in S2. 4., the exposed cells were incubated at 37° C and 5% CO₂ for an additional 24 h. All chemicals were tested in all assays with at least three independent […]
S2.4: Cell Viability Measurement s and bioanalytical protocols . The confluency as a measure of cell viability was determined with an IncuCyte S3 Live -Cell Analysis System (Sartorius AG, Essen, Germany). With this method the confluency of cells in a microscopy image are normalized to control wells without cells and compared before and after 24 hours of exposure.
This method has been described previously 13. Cell viability of SH-SY5Y cells was measured […]
propidium iodide (PI, Abcam, Cambridge, U.K.).14 Nuclear Green LCS1 is a membrane-permeable dye that stains the nuclei of all cells, whereas PI only enters cells with compromised membrane integrity (non-viable cells). After staining, live cells show green nuclei without red fluorescence, while dead cells display both green and red nuclear fluorescence due to PI […]
intercalation. […]

[2] = Arec32, read-out: EC10, MMP (M)
[3] = Arec32, read-out: EC10, linear transformed
[4] = NOI bioassay cytotoxicity, dosing range all
[5] = NOI bioassay cytotoxicity, dosing range all, linear model
[6] = NOI bioassay cytotoxicity, dosing range all, log-logistic model

| Structure (SMILES) | EC10 ([1]; Arec32, read-out: EC10, MMP) [M] | EC10 [1, 2] [M] | EC10 ([1]; Arec32, read-out: EC10, linear) [M] | EC10 [1, 3] [M] | EC10 ([1]; Arec32, read-out: logEC10) [M] | Specificity ratio (SRbaseline) SRMMP [1] | Specificity ratio (SRcytotoxicity) SRMMP [1] | Relative effect potency REPMMP [1] | IC10, linear transformed (SH-SY5Y cells; [4]) | IC10, linear (SH-SY5Y cells; [5]) | logIC10 (SH-SY5Y cells; [6]) | Toxic ratio (TR) TRNOI (SH-SY5Y cells) | IC10, SH-S5Y5, NOI (SH-SY5Y cells) [µM] | EC10, linear [1] | log(1/EC10) MMP [1] | SR (MMP inhibition) [1] | IC10, linear (SH-SY5Y cells) | logIC10 (SH-SY5Y cells; human, 24 h) |
| --- | --- | --- | --- | --- | --- | --- | --- | --- | --- | --- | --- | --- | --- | --- | --- | --- | --- | --- |
| CCC(C)(c1ccc(O)cc1)c1ccc(O)cc1 [BPB, 4,4'-(Butane-2,2-diyl)diphenol] | 1.64e-05 | 1.64e-05 | 9.79e-06 | 1.62e-05 | 1.62e-05 | 1.33 | 2.14 | 1.71 | 1.67E-04 | 2.31E-04 | -3.78 | 0.10 | 167 | – | – | – | – | – |
| CC(c1ccc(O)cc1)c1ccc(O)cc1 [BPE, 4,4′-Ethylidenbisphenol] | 3.21e-05 | 3.21e-05 | – | 3.01e-05 | 3.24e-05 | – | – | – | 2.79E-04 | 5.29E-04 | -3.55 | – | 279 | no effect | – | – | – | – |
| COC(=O)C(c1ccc(O)cc1)c1ccc(O)cc1 [Bz, Methyl bis(4-hydroxyphenyl)acetate] | – | – | 3.72e-05 | 5.74e-05 | 6.46e-05 | – | – | – | 5.07E-04 | 3.73E-04 | -3.30 | 0.85 | 373 | – | 0.84 | – | – | – |
| Oc1ccc(C2(c3ccc(O)cc3)CCCCC2)cc1 [BPZ, 1,1'-Bis(4-hydroxyphenyl)cyclohexane] | 2.21e-05 | 2.21e-05 | 1.31e-05 | 2.39e-05 | 2.19e-05 | – | – | – | 7.89E-05 | 7.12E-05 | -4.10 | – | 78.9 | – | – | – | – | – |
| CC(C)Oc1ccc(S(=O)(=O)c2ccc(O)cc2)cc1 [D8, 4-((4-Isopropoxyphenyl)sulfonyl)phenol] | 5.2e-05 | 5.2e-05 | 5.8e-05 | 5.14e-05 | 5.25e-05 | 2.47 | 41.11 | 0.54 | – | – | – | 0.22 | – | – | – | 41 | no cytotoxicity | -3.31 |
| O=S(=O)(c1ccc(O)cc1)c1ccc(OCc2ccccc2)cc1 [BPS-MPE, 4-[4-(benzyloxy)benzenesulfonyl]phenol] | 5.59e-06 | 5.59e-06 | 3.72e-06 | 5.91e-06 | 5.62e-06 | 6.33 | 21.99 | 5.01 | – | no cytotoxicity | no cytotoxicity | – | – | – | – | 22 | – | – |
| Oc1ccc(Sc2ccc(O)cc2)cc1 [BPT, 4,4'-Thiodiphenol] | 1.83e-05 | 1.83e-05 | – | 1.82e-05 | 1.82e-05 | – | – | – | – | 1.40E-04 | no cytotoxicity | – | 140 | no effect | – | > 10 | – | – |
| CC(C)(c1cc(Cl)c(O)c(Cl)c1)c1cc(Cl)c(O)c(Cl)c1 [TCBPA, 2,2',6,6'-Tetrachlorobisphenol A] | 1.48e-05 | 1.48e-05 | 1.15e-05 | 1.6e-05 | 1.48e-05 | – | – | – | – | 3.70E-08 | no cytotoxicity | – | – | – | – | – | – | – |
| CC(C)(c1ccc(O)c(-c2ccccc2)c1)c1ccc(O)c(-c2ccccc2)c1 [BPPH, 2,2-Bis(2-hydroxy-5-biphenylyl)propane] | 1.96e-06 | 1.96e-06 | – | 1.94e-06 | 1.95e-06 | 2.08 | 3.95 | 14.27 | 2.31E-05 | no cytotoxicity | -4.64 | 0.08 | 23.1 | no effect | 1.00 | – | – | – |
| O=S(=O)(c1ccc(O)cc1)c1ccc(O)cc1 [BPS, 4,4'-Sulfonyldiphenol] | 0.000117 | 0.000117 | 7.55e-05 | 0.000118 | 0.000117 | – | – | – | – | 1.85E-04 | -3.71 | – | 195 | – | – | – | – | – |
| Oc1ccc(Cc2ccc(O)cc2)cc1 [BPF, Bis(4-hydroxyphenyl)methane] | – | – | 0.000167 | 0.000167 | 0.000166 | – | – | – | 5.69E-04 | 5.56E-04 | -3.24 | – | 569 | – | – | – | – | – |
